# From US9464044B2, “Compound having ability to inhibit 11Beta-HSD1 enzyme or pharmaceutically acceptable salt thereof, method for producing same, and pharmaceutical composition containing same as active ingredient” (AHN-GOOK PHARMACEUTICAL CO., LTD., priority 2012, dated 2016)
# Target: 11β-HSD1 (Homo sapiens (Human), UniProt P28845)
# Assay: 11β-HSD1 inhibiting activity, HTRF assay with human microsomal fractions
# Type: biochemical
# Conditions: 160 nM cortisone, 200 μM NADPH, 2 h at 37° C.
# Procedure: The inhibiting activity of 11β-HSD1 derived from microsomal fractions was measured using the HTRF assay (62CO2PEB, Cisbio). […] Europium (Eu^3+) cryptate and XL665-conjugated cortisol were then added to each well and incubated for an additional 2 h at room temperature. The Cortisol concentration was calculated u sing a calibration curve. The IC50 values were calculated from dose response curves using GraphPad Prism software.
# Chain of 11β-HSD1 (P28845 whole entry): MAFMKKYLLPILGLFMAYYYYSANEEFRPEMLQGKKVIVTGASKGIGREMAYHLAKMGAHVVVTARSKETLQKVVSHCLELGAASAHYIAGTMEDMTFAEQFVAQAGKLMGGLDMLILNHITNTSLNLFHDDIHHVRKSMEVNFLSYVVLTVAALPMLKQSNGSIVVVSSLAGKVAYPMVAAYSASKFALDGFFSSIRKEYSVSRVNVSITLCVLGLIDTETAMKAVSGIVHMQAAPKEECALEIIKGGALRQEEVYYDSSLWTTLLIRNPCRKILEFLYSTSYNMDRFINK
row,SMILES,IC50 [nM]
1,"Cc1c(Cl)cccc1S(=O)(=O)NCC1(C(=O)NC2C3CC4CC(C3)CC2C4)CC1 (centres unmarked) [Example 1, N-(adamantan-2-yl)-1-[(3-chloro-2-methylbenzenesulfonylamino)methyl]cyclopropanecarboxamide]",14.2
2,"O=C(NC1C2CC3CC1CC(O)(C3)C2)C1(CNS(=O)(=O)c2ccccc2F)CC1 (centres unmarked) [Example 2, 1-[(2-fluoro-benzenesulfonylamino)methyl]-N-(5-hydroxyadamantan-2-yl)cyclopropanecarboxamide]",26.6
3,"Cc1c(Cl)cccc1S(=O)(=O)NCC1(C(=O)NC2C3CC4CC2CC(C(N)=O)(C4)C3)CC1 (centres unmarked) [Example 5, E-4-[1-((3-chloro-2-methyl-benzenesulfonylamino)methyl)cyclopropanecarboxamido]-adamantan-1-carboxylic acid amide]",2.7
4,"Cc1cc(S(=O)(=O)NCC2(C(=O)NC3C4CC5CC3CC(C(N)=O)(C5)C4)CC2)c(F)cc1Cl (centres unmarked) [Example 15, E-4-[1-((4-chloro-2-fluoro-5-methyl-benzenesulfonylamino)methyl)cyclopropanecarboxamido]-adamantan-1-carboxylic acid amide]",28
5,"NC(=O)C12CC3CC(C1)C(NC(=O)C1(CNS(=O)(=O)c4cc(Cl)c(Cl)cc4F)CC1)C(C3)C2 (centres unmarked) [Example 16, E-4-[1-((4,5-dichloro-2-fluoro-benzenesulfonylamino)methyl)cyclopropanecarboxamido]-adamantan-1-carboxylic acid amide]",5
6,"NC(=O)C12CC3CC(C1)C(NC(=O)C1(CNS(=O)(=O)c4ccco4)CC1)C(C3)C2 (centres unmarked) [Example 17, E-4-[1-((furan-2-sulfonylamino)methyl)cyclopropanecarboxamido]-adamantan-1-carboxylic acid amide]",132
7,NC(=O)C12CC3CC(C1)C(NC(=O)C1(CNS(=O)(=O)c4cc(Cl)cc(Cl)c4)CC1)C(C3)C2 (centres unmarked) [Example 18],23.9
8,NC(=O)C12CC3CC(C1)C(NC(=O)C1(CNC(=O)c4ccc(F)c(F)c4)CC1)C(C3)C2 (centres unmarked) [Example 25],9.6
9,"CCN(CC1(C(=O)NC2C3CC4CC2CC(C(N)=O)(C4)C3)CC1)S(=O)(=O)c1ccccc1F (centres unmarked) [Example 32, E-4-[1-((N-ethyl-fluoro-benzenesulfonylamino)methyl)cyclopropanecarboxamido]-adamantan-1-carboxylic acid amide]",1.4
10,"Cc1cccc(F)c1S(=O)(=O)NC1(C(=O)NC2C3CC4CC2CC(C(N)=O)(C4)C3)CC1 (centres unmarked) [Example 40, E-4-[1-(2-fluoro-6-methyl-benzenesulfonylamino)cyclopropanecarboxamido]-adamantan-1-carboxylic acid amide]",1.7
11,"Cc1cc(S(=O)(=O)NC2(C(=O)NC3C4CC5CC3CC(C(N)=O)(C5)C4)CC2)c(Cl)cc1Cl (centres unmarked) [Example 43, E-4-[1-(2,4-dichloro-5-methyl-benzenesulfonylamino)cyclopropanecarboxamido]-adamantan-1-carboxylic acid amide]",29.7

# The remaining molecules from weak to strong by IC50, led by results:
row,IC50 [nM],SMILES
1,608,"NC(=O)C12CC3CC(C1)C(NC(=O)C1(CNS(=O)(=O)c4cc(F)cc(F)c4)CC1)C(C3)C2 (centres unmarked) [Example 9, E-4-[1-((3,5-difluoro-benzenesulfonylamino)methyl)cyclopropanecarboxamido]-adamantan-1-carboxylic acid amide]"
2,102,"NC(=O)C12CC3CC(C1)C(NC(=O)C1(CNS(=O)(=O)c4ccc(F)cc4C(F)(F)F)CC1)C(C3)C2 (centres unmarked) [Example 20, E-4-[1-((2-(trifluoromethyl)-4-fluoro-benzenesulfonylamino)methyl)cyclopropanecarboxamido]-adamantan-1-carboxylic acid amide]"
3,79.1,NC(=O)C12CC3CC(C1)C(NC(=O)C1(NS(=O)(=O)c4ccc(F)cc4F)CC1)C(C3)C2 (centres unmarked) [Example 44]
4,30.8,"NC(=O)C12CC3CC(C1)C(NC(=O)C1(CNS(=O)(=O)c4ccc(F)c(F)c4)CC1)C(C3)C2 (centres unmarked) [Example 21, E-4-[1-((3,4-difluoro-benzenesulfonylamino)methyl)cyclopropanecarboxamido]-adamantan-1-carboxylic acid amide]"
5,29.9,"NC(=O)CCC12CC3CC(C1)C(NC(=O)C1(CNS(=O)(=O)c4ccccc4F)CC1)C(C3)C2 (centres unmarked) [Example 34, E-N-(5-(3-amino-3-oxopropyl)adamantan-2-yl)-1-((2-fluoro-benzenesulfonylamino)methyl)cyclopropanecarboxamide]"
6,13.3,"Cc1cc(S(=O)(=O)NCC2(C(=O)NC3C4CC5CC3CC(C(N)=O)(C5)C4)CC2)c(Cl)cc1Cl (centres unmarked) [Example 14, E-4-[1-((2,4-dichloro-5-methyl-benzenesulfonylamino)methyl)cyclopropanecarboxamido]-adamantan-1-carboxylic acid amide]"
7,10.4,"NC(=O)C12CC3CC(C1)C(NC(=O)C1(CNS(=O)(=O)c4cccc(F)c4F)CC1)C(C3)C2 (centres unmarked) [Example 11, E-4-[1-((2,3-difluoro-benzenesulfonylamino)methyl)cyclopropanecarboxamido]-adamantan-1-carboxylic acid amide]"
8,10,"Cc1c(Cl)cccc1S(=O)(=O)NC1(C(=O)NC2C3CC4CC2CC(C(N)=O)(C4)C3)CC1 (centres unmarked) [Example 41, E-4-[1-(3-chloro-2-methyl-benzenesulfonylamino)cyclopropanecarboxamido]-adamantan-1-carboxylic acid amide]"
9,6.4,"NC(=O)C12CC3CC(C1)C(NC(=O)C1(NS(=O)(=O)c4ccc(F)cc4)CC1)C(C3)C2 (centres unmarked) [Example 42, E-4-[1-(4-fluoro-benzenesulfonylamino)cyclopropanecarboxamido]-adamantan-1-carboxylic acid amide]"
10,2.8,"Cc1cccc(F)c1S(=O)(=O)N(C)CC1(C(=O)NC2C3CC4CC2CC(C(N)=O)(C4)C3)CC1 (centres unmarked) [Example 13, E-4-[1-((2-fluoro-N,6-dimethyl-benzenesulfonylamino)methyl)cyclopropanecarboxamido]-adamantan-1-carboxylic acid amide]"
11,2.6,"NC(=O)C12CC3CC(C1)C(NC(=O)C1(CNS(=O)(=O)c4cccc(Cl)c4)CC1)C(C3)C2 (centres unmarked) [Example 7, E-4-[1-((3-chloro-benzenesulfonylamino)methyl)cyclopropanecarboxamido]-adamantan-1-carboxylic acid amide]"
12,2.5,"Cc1cccc(F)c1S(=O)(=O)NCC1(C(=O)NC2C3CC4CC2CC(C(N)=O)(C4)C3)CC1 (centres unmarked) [Example 10, E-4-[1-((2-fluoro-6-methyl-benzenesulfonylamino)methyl)cyclopropanecarboxamido]-adamantan-1-carboxylic acid amide]"
13,1.5,"O=C(O)CC[C@]12C[C@@H]3C[C@H](C1)[C@@H](NC(=O)C1(CNS(=O)(=O)c4ccccc4F)CC1)[C@@H](C3)C2 [Example 33, E-3-(4-(1((2-fluoro-benzenesulfonylamino)methyl)cyclopropanecarboxamido)adamantan-1-yl)propanoic acid]"
14,1.2,"Cn1ccc2cc(S(=O)(=O)NCC3(C(=O)NC4C5CC6CC4CC(C(N)=O)(C6)C5)CC3)ccc21 (centres unmarked) [Example 26, E-4-[1-((1-methyl-1H-indole-5-sulfonylamino)methyl)cyclopropanecarboxamido]-adamantan-1-carboxylic acid amide]"
15,1.2,"CN(CC1(C(=O)NC23CC4CC(CC(C4)C2)C3)CC1)S(=O)(=O)c1ccccc1F [Example 31, N-(adamantan-1-yl)-1-((2-fluoro-N-methylbenzenesulfonylamino)methyl)cyclopropanecarboxamido]"
